Experimental data taken from US20080312244A1, “Squaric Acid Derivatives as Protein Kinase Inhibitors” (priority 2005, published 2008).

Legend:
CHK1 kinase = target: T1, CHK1 kinase (Homo sapiens, UniProt O14757); experiment: Measurement of the CHK1 kinase activity (flashplate / filter binding method); assay type: biochemical; details: class symbols defined in table footnotes
T1 construct: glutathione S-transferase (GST); made in house; host or cells: Sf21 (S. frugiperda) insect cells, baculovirus expression vector
T1 sequence (O14757 1-476): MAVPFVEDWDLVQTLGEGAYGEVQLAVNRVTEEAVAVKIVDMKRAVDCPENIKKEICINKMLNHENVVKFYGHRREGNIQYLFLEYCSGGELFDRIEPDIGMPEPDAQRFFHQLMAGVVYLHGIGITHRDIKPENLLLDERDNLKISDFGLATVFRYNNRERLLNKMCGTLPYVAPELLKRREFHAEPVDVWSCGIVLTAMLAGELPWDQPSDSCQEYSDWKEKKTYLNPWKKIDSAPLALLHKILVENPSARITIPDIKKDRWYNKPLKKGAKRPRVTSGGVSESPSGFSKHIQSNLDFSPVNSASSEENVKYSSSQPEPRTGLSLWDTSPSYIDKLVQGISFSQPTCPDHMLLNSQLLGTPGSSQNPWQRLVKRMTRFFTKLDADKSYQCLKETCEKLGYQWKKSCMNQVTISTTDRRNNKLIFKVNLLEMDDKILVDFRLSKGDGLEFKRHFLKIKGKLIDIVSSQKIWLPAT
Protocol: CHK1 kinase is expressed for the purposes of protein production in insect cells (Sf21; S. frugiperda) and subsequent purification by affinity chromatography as fusion protein with glutathione S-transferase in a baculovirus expression vector. The cultivation, infection and digestion of the cells as well as the purification of the fusion protein by column chromatography are carried out in accordance with manufacturer-oriented generic working instructions.
The kinase activity is measured using various available measurement systems. In the scintillation proximity method (Sorg et al., J. of. Biomolecular Screening, 2002, 7, 11-19), the flashplate method or the filter binding test, the radioactive phosphorylation of a protein or peptide as substrate is measured using radioactively labelled ATP (γ^32P-ATP, (γ^33P-ATP). In the case of the presence of an inhibitory compound, a reduced radioactive signal, or none at all, can be detected. Furthermore, homogeneous time-resolved fluorescence resonance energy transfer (HTR-FRET) and fluorescence polarisation (FP) technologies are useful as assay methods (Sills et al., J. of Biomolecular Screening, 2002, 191-214).
The test plates used are 384-well streptavidin-coated Flashplates Plus® from Perkin Elmer (Cat. No. SMP410A001 PK). The assay plate is equilibrated with 75 μl of assay buffer per well 30 min before commencement of the experiment. The buffer is sucked out before commencement of the experiment, and the components of the kinase reaction described below are pipetted onto the plate.
CHK1 kinase, a biotinylated substrate peptide (for example CHKtide: […]), is incubated with radioactively labelled ATP in the presence and absence of test substances at […] and a total volume of 50 μl. The reaction is terminated using 25 μl of a 0.2 M EDTA solution. After incubation for 30 min at room temperature, the supernatants are filtered off with suction, and the wells are washed three times with 100 μl of 0.9% NaCl solution each time. The measurement of the bound radioactivity is carried out by means of a scintillation measuring instrument (Topcount NXT, Perkin-Elmer).
The full value used is the inhibitor-free kinase reaction. This should be approximately in the range 3000-4000 cpm. The pharmacological zero value used is staurosporin in a final concentration of 0.1 μM. The inhibitory values (IC50) are determined using the program RS1_MTS ( ).
Kinase reaction conditions per well:
0.15 μg of CHKtide ([…])
50 μl total volume (1-fold assay buffer reaction conditions)
5-20 mU of CHK1 kinase (diluted in 20 mM MOPS pH7.5, 1 mM EDTA, 0.1% β-mercaptoethanol, 0.01% Brij-35, 5% glycerol, 1 mg/ml of BSA) are incubated for 30 min at room temperature in the presence of 30-200 μM CHKtide in 25.5 μl in 1-fold reaction buffer (8 mM MOPS pH7, 0.2 mM EDTA, 10 mM magnesium acetate, 0.02 mM γ^33P-ATP [500-1000 cpm/pmol]). The reaction is stopped using 5 μl of 0.5 M ortho-phosphoric acid and filtered through P81 filter plates. After the filter plates have been washed a number of times, the bound radioactivity is determined in a scintillation counter.

Row | Compound | IC50 (CHK1 kinase) [µM] | melting point [°C]
1 | O=c1c(NCc2cccc(O)c2)c(Nc2ccc(O)c(-n3ccnc3)c2)c1=O [Compound A74, 3-(3-Hydroxybenzylamino)-4-(3-imidazol-1-yl-4-hydroxyphenylamino)cyclobut-3-ene-1,2-dione] | > 1 | 
2 | NS(=O)(=O)c1cccc(CNc2c(Nc3ccc(O)c(-c4ccccn4)c3)c(=O)c2=O)c1 [Compound A12, 3-(3-Aminosulfonylbenzylamino)-4-(4-hydroxy-3-pyridin-2-ylphenylamino)cyclobut-3-ene-1,2-dione] | < 1 | 
3 | O=c1c(NCc2cccc(O)c2)c(Nc2ccc(O)c(-n3cccn3)c2)c1=O [Compound A75, 3-(3-Hydroxybenzylamino)-4-(4-hydroxy-3-pyrazol-1-ylphenylamino)cyclobut-3-ene-1,2-dione] | < 1 | 
4 | CN(Cc1cccc(O)c1)c1c(Nc2ccc(O)c(-c3ccccn3)c2)c(=O)c1=O [Compound A68, 3-[(3-Hydroxybenzyl)methylamino]-4-(4-hydroxy-3-pyridin-2-ylphenylamino)cyclobut-3-ene-1,2-dione] | < 1 | 
5 | CC(=O)Nc1cccc(CNc2c(Nc3ccc(O)c(-c4ccccn4)c3)c(=O)c2=O)c1 [Compound A64, 3-(3-Acetamidobenzylamino)-4-(4-hydroxy-3-pyridin-2-ylphenylamino)cyclobut-3-ene-1,2-dione] | < 1 | 
6 | CNS(=O)(=O)c1cccc(CNc2c(Nc3ccc(O)c(-c4ccccn4)c3)c(=O)c2=O)c1 [Compound A67, 3-(3-Methylaminosulfonylbenzylamino)-4-(4-hydroxy-3-pyridin-2-ylphenylamino)cyclobut-3-ene-1,2-dione] | < 1 | 
7 | O=c1c(NCc2cccc(O)c2)c(Nc2ccc(O)c(-c3ccccn3)c2)c1=O [Compound A1, 3-(3-hydroxybenzylamino)-4-(4-hydroxy-3-pyridin-2-ylphenylamino)cyclobut-3-ene-1,2-dione] | < 0.1 | 271 to 272
8 | O=c1c(NCc2ccc(F)c(O)c2)c(Nc2ccc(O)c(-c3ccccn3)c2)c1=O [Compound A65, 3-(4-Fluoro-3-hydroxybenzylamino)-4-(4-hydroxy-3-pyridin-2-ylphenylamino)cyclobut-3-ene-1,2-dione] | < 1 | 
9 | COc1ccc(Nc2c(NCc3cccc(O)c3)c(=O)c2=O)cc1-n1ccnc1 [Compound A72, 3-(3-Hydroxybenzylamino)-4-(3-imidazol-1-yl-4-methoxyphenylamino)cyclobut-3-ene-1,2-dione] | > 1 | 
10 | O=c1c(NCc2cccc(O)c2)c(Nc2ccc(O)c(-n3cccc3)c2)c1=O [Compound A73, 3-(3-Hydroxybenzylamino)-4-(4-hydroxy-3-pyrrol-1-ylphenylamino)cyclobut-3-ene-1,2-dione] | > 1 | 
11 | NC(=O)c1cccc(CNc2c(Nc3ccc(O)c(-c4ccccn4)c3)c(=O)c2=O)c1 [Compound A66, 3-(3-Aminocarbonylbenzylamino)-4-(4-hydroxy-3-pyridin-2-ylphenylamino)cyclobut-3-ene-1,2-dione] | < 1 | 
12 | COc1cc(CNc2c(Nc3ccc(O)c(-c4ccccn4)c3)c(=O)c2=O)ccc1F [Compound A62, 3-(4-Fluoro-3-methoxybenzylamino)-4-(4-hydroxy-3-pyridin-2-ylphenylamino)cyclobut-3-ene-1,2-dione] | > 1 | 
13 | C[C@@H](Nc1c(Nc2cccc(-c3ccccn3)c2)c(=O)c1=O)c1cccc(O)c1 [Compound A6, 3-(3-Pyridin-2-ylphenylamino)-4-[(R)-1-(3-hydroxyphenyl)ethylamino]cyclobut-3-ene-1,2-dione] | > 1 | 
14 | O=c1c(NCc2ccc(O)c(O)c2)c(Nc2ccc(O)c(-c3ccccn3)c2)c1=O [Compound A61, 3-(3,4-Dihydroxybenzylamino)-4-(4-hydroxy-3-pyridin-2-ylphenylamino)cyclobut-3-ene-1,2-dione] | < 0.1 | 
15 | O=c1c(NCCc2cccc(O)c2)c(Nc2ccc(O)c(-c3ccccn3)c2)c1=O [Compound A60, 3-[2-(3-Hydroxyphenyl)ethylamino]-4-(4-hydroxy-3-pyridin-2-ylphenylamino)cyclobut-3-ene-1,2-dione] | < 1 | 
16 | COc1cccc([C@@H](C)Nc2c(Nc3ccc(O)c(-c4ccccn4)c3)c(=O)c2=O)c1 [Compound A4, 3-(4-Hydroxy-3-pyridin-2-ylphenylamino)-4-[(R)-1-(3-methoxyphenyl)ethylamino]cyclobut-3-ene-1,2-dione] | > 1 | 
17 | COc1cccc([C@H](C)Nc2c(Nc3ccc(O)c(-c4ccccn4)c3)c(=O)c2=O)c1 [Compound A59, 3-(4-Hydroxy-3-pyridin-2-ylphenylamino)-4-[(S)-1-(3-methoxyphenyl)ethylamino]cyclobut-3-ene-1,2-dione] | > 1 | 
18 | O=c1c(NCc2cccc(O)c2)c(Nc2ccc(O)c(-c3ccccc3)c2)c1=O [Compound A2, 3-(3-Hydroxybenzylamino)-4-(4-hydroxy-3-phenylphenylamino)cyclobut-3-ene-1,2-dione] | > 1 | 
19 | COc1cccc([C@@H](C)Nc2c(Nc3ccc(O)c(-n4cccn4)c3)c(=O)c2=O)c1 [Compound A76, 3-(4-Hydroxy-3-pyrazol-1-ylphenylamino)-4-[(R)-1-(3-methoxyphenyl)ethylamino]cyclobut-3-ene-1,2-dione] | < 1 | 
20 | C[C@@H](Nc1c(Nc2ccc(O)c(-c3ccccn3)c2)c(=O)c1=O)c1ccccc1 [Compound A3, 3-(4-Hydroxy-3-pyridin-2-ylphenylamino)-4-[(R)-1-phenylethylamino]cyclobut-3-ene-1,2-dione] | > 1 | 
21 | O=c1c(NCc2cc(O)cc(O)c2)c(Nc2ccc(O)c(-c3ccccn3)c2)c1=O [Compound A63, 3-(3,5-Dihydroxybenzylamino)-4-(4-hydroxy-3-pyridin-2-ylphenylamino)cyclobut-3-ene-1,2-dione] | < 0.1 | 
22 | O=c1c(NCc2cccc(O)c2)c(Nc2ccc(O)c(-c3ccncc3)c2)c1=O [Compound A23, 3-(3-Hydroxybenzylamino)-4-(4-hydroxy-3-pyridin-4-ylphenylamino)cyclobut-3-ene-1,2-dione] | < 1 | 
23 | C[C@H](Nc1c(Nc2ccc(O)c(-c3ccccn3)c2)c(=O)c1=O)c1cccc(O)c1 [Compound A10, 3-(4-Hydroxy-3-pyridin-2-ylphenylamino)-4-[(S)-1-(3-hydroxyphenyl)ethylamino]cyclobut-3-ene-1,2-dione] | > 1 | 
24 | C[C@@H](Nc1c(Nc2ccc(O)c(-c3ccccn3)c2)c(=O)c1=O)c1cccc(O)c1 [Compound A5, 3-(4-Hydroxy-3-pyridin-2-ylphenylamino)-4-[(R)-1-(3-hydroxyphenyl)ethylamino]cyclobut-3-ene-1,2-dione] | < 0.1 | 
